Source: paper PMC5372168, “Serine protease SP105 activates prophenoloxidase in Asian corn borer melanization, and is regulated by serpin-3” (Scientific Reports, 2017)

Molecular target: T1, Asian corn borer prophenoloxidase-2 (OfPPO2; PO2) (Ostrinia furnacalis, UniProt Q2I355)
T1 construct: coding region of mature PPO2 in pET28a, E. coli BL21(DE3), purified
T1 sequence (Q2I355 1-692): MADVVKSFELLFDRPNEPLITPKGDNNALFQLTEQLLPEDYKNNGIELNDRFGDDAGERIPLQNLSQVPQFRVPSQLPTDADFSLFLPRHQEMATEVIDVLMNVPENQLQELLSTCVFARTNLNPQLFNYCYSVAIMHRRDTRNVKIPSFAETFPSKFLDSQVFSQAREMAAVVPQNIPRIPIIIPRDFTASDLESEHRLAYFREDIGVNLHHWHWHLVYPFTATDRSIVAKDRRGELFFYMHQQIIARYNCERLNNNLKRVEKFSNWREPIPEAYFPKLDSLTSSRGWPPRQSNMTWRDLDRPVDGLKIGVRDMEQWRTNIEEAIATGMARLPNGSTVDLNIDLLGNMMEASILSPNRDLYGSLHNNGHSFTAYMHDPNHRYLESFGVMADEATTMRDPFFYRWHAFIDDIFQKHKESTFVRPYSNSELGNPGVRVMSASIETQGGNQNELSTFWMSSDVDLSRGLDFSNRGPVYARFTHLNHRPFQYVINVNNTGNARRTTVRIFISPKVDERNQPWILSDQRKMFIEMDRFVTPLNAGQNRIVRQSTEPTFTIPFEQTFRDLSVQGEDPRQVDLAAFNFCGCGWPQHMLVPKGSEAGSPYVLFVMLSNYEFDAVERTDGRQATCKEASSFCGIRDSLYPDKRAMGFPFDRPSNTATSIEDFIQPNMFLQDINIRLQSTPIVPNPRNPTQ
Test: phenoloxidase assay, A490
Type: biochemical
Conditions: PPO2 activated by Factor Xa-activated SP105Xa, 37 °C 30 min

## NCCc1ccc(O)c(O)c1 [dopamine]
  phenoloxidase assay, A490: PO activity in the reaction mixtures was measured using dopamine as substrate
